According to US20150320748A1, “AGENT FOR INHIBITING EXPRESSION OF LIPID METABOLISM RELATED MRNA” (KOWA CO., LTD., priority 2011, published 2015):

What was measured:
[1] = target: T1, cholesterol ester transfer protein (CETP) (Homo sapiens, UniProt P11597); assay: CETP inhibitory effect; format: biochemical; settings: no method or values printed
T1 sequence (P11597 18-493): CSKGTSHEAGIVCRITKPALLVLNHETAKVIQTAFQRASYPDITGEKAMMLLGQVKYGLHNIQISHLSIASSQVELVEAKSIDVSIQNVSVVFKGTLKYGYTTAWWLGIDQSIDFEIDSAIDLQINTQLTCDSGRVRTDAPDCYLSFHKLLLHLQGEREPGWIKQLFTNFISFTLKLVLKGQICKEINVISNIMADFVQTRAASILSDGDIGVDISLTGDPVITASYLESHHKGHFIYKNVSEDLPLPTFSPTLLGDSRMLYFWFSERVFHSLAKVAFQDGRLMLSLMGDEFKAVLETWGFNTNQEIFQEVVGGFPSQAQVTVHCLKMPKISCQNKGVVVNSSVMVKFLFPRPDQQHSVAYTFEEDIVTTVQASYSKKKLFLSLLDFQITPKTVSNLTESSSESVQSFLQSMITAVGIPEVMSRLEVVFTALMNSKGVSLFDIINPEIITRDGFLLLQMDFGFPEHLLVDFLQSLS

SREBP1c mRNA = assay: Expression level of SREBP1c mRNA in HepG2 cells by real-time quantitative RT-PCR; format: cell-based, human; settings: 0.1, 1, 10 mM DMSO solutions added at 1 to 1000, corrected by β-Actin mRNA, FIG. 2
Procedure: The test compound 2 was added to the HepG2 cells of human liver cancer cell line, cultured for 24 hours, and then the expression level of SREBP1c mRNA was measured by real-time quantitative RT-PCR. More specifically, the HepG2 cells were seeded on a 24-well plate at a concentration of 2×10^5 cells/well, and cultured overnight. The test compound 2 was dissolved in dimethyl sulf oxide (DMSO) at concentrations of 0.1 mM, 1 mM, and 10 mM, and added to the culture solution at the rate of 1 to 1000. The mixture was cultured for 8 hours in a CO2 incubator at 37° C., and then 500 μL of ISOGEN (Nippon Gene Co., Ltd., catalogue No. 31-02501) was added, and the total RNA was extracted. […] The expression level of human SREBP1c mRNA was measured using a TaqMan probe 5′-[sequence]-3′ (SEQ ID NO. 3), a sense primer: 5′-[sequence]-3′ (SEQ ID NO. 4), and an antisense primer 5′-[sequence]-3′ (SEQ ID NO. 5), which are specific to human SREBP1c, and TaqMan Fast Universal PCR Master Mix (Applied Biosystems, catalogue No. 4367846). […]
The measurement value was corrected by the expression level of β-Actin mRNA. The expression level of SREBP1c mRNA in the cells mixed with DMSO alone was set at 1, and the expression level of SREBP1c mRNA in the cells mixed with the test compound 2 was calculated as relative value.

SCD-1 mRNA = assay: Expression level of SCD-1 mRNA in HepG2 cells by real-time quantitative RT-PCR; format: cell-based, human; settings: 0.1, 1, 10 mM DMSO solutions added at 1 to 1000, corrected by β-Actin mRNA, FIG. 3
Procedure: More specifically, the HepG2 cells were seeded on a 24-well plate at a concentration of 2×10^5 cells/well, and cultured overnight. […] The mixture was cultured for 8 hours in a CO2 incubator at 37° C., and then 500 μL of ISOGEN (Nippon Gene Co., Ltd., catalogue No. 31-02501) was added, and the total RNA was extracted. From the extracted total RNA, cDNA was synthesized using High Capacity cDNA Reverse Transcription kit (Applied Biosystems, catalogue No. 4368813). The expression level of human SCD-1 was measured using a primer 5′-[sequence]-3′ (SEQ ID NO. 6), an antisense primer 5′-[sequence]-3′ (SEQ ID NO. 7), which are specific to human SCD-1, and Fast SYBR Green master mix (Applied Biosystems, catalogue No. 4385614). The measurement instrument was 7900HT Fast Realtime PCR system.
The measurement value was corrected by the expression level of β-Actin mRNA.

| Structure (SMILES) | CETP inhibitory effect (test compound 2 compared with Anacetrapib) [1] | decrease of the expression level of SREBP1c mRNA (relative value, DMSO alone = 1) (SREBP1c mRNA) | decrease of the expression level of SCD-1 mRNA (relative value, DMSO alone = 1) (SCD-1 mRNA) |
| --- | --- | --- | --- |
| COc1cc(F)c(C(C)C)cc1-c1ccc(C(F)(F)F)cc1CN1C(=O)O[C@H](c2cc(C(F)(F)F)cc(C(F)(F)F)c2)[C@@H]1C [Anacetrapib, (4S,5R) -5-[3,5-bis(trifluoromethyl)phenyl]-3-({2-[4-fluoro-2-methoxy-5-(propane-2-yl)phenyl]-5-(trifluoromethyl)phenyl}methyl)-4-methyl-1,3-oxazolidine-2-one, reference compound] | equal | – | – |
| CCN(C[C@H]1CC[C@H](CC(=O)O)CC1)c1ccc(C(F)(F)F)cc1CN(c1ncc(OCCS(C)(=O)=O)cn1)[C@@H](C)c1cc(C(F)(F)F)cc(C(F)(F)F)c1 [compound 2] | equal | evidently stronger than that of Anacetrapib | evidently stronger than that of Anacetrapib |
